Measurements from PMC9569593, “Measurement of Hepatic CYP3A4 and 2D6 Activity Using Radioiodine-Labeled O-Desmethylvenlafaxine” (International Journal of Molecular Sciences, 2022).
Where two headings read alike, the source gives them in different places.

What was measured:
[1] = system: CYP3A4; settings: CYP3A4-inhibited mice (ketoconazole 50 mg/kg i.p. 60 min before), i.v.
Description: (§1) ^125I-ODV was prepared to a radioactive concentration of 30 MBq/mL by the addition of saline. For metabolite analysis in CYP-inhibited mice, we produced model mice with reduced CYP3A4 or CYP2D6 activity by selective inhibition using ketoconazole or paroxetine. CYP3A4-inhibited mice were injected intraperitoneally with 50 mg/kg of ketoconazole at 60 min before injection of ^125I-ODV, and CYP2D6-inhibited mice were injected intraperitoneally with 30 mg/kg of paroxetine at 60 min before injection of ^125I-ODV. Each of three mice was administered ^125I-ODV via the tail vein (3.0 MBq/100 µL/mouse). At 30 min, the three fasted mice were euthanized under isoflurane, and each gallbladder was collected. The radioactive products in bile were analyzed by TLC using methanol/acetate at a ratio of 100:1. Bile was directly spotted onto a TLC plate.
To examine the biological distribution in CYP-inhibited mice, we produced model mice in the same way as for the analysis of metabolism in bile. At 5, 15, 30, and 60 min after ^125I-ODV injection, mice were euthanized under isoflurane (n = 4), and the same tissues were collected and quantified.

[2] = Description: as §1
[3] = normal and CYP-inhibited mice, TLC of bile

SMILES: CN(C)CC(c1ccc(O)c([125I])c1)C1(O)CCCCC1 (centres unmarked) [^125I-ODV, iodine-125-labeled O-desmethylvenlafaxine]
- Biological distribution, Blood ([1]; 5 min): 1.91 %ID/g
- Biological distribution, Brain ([1]; 5 min): 0.71 %ID/g
- Biological distribution, Gallbladder ([1]; 5 min): 2.39 %ID/g
- Biological distribution, Heart ([1]; 5 min): 5.73 %ID/g
- Biological distribution, Kidney ([1]; 5 min): 21.72 %ID/g
- Biological distribution, Large intestines ([1]; 5 min): 1.19 %ID/organ
- Biological distribution, Liver ([1]; 5 min): 5.66 %ID/g
- Biological distribution, Lung ([1]; 5 min): 29.72 %ID/g
- Biological distribution, Pancreas ([1]; 5 min): 8.93 %ID/g
- Biological distribution, Small intestines ([1]; 5 min): 6.06 %ID/organ
- Biological distribution, Spleen ([1]; 5 min): 6.61 %ID/g
- Biological distribution, Stomach ([1]; 5 min): 2.37 %ID/organ
- Biological distribution, Thyroid ([1]; 5 min): 0.05 %ID/organ
- Biological distribution, Urine ([1]; 5 min): 2.10 %ID/organ
- Biological distribution, Blood ([1]; 15 min): 1.71 %ID/g
- Biological distribution, Brain ([1]; 15 min): 0.80 %ID/g
- Biological distribution, Gallbladder ([1]; 15 min): 5.43 %ID/g
- Biological distribution, Heart ([1]; 15 min): 3.93 %ID/g
- Biological distribution, Kidney ([1]; 15 min): 19.74 %ID/g
- Biological distribution, Large intestines ([1]; 15 min): 1.00 %ID/organ
- Biological distribution, Liver ([1]; 15 min): 4.72 %ID/g
- Biological distribution, Lung ([1]; 15 min): 21.72 %ID/g
- Biological distribution, Pancreas ([1]; 15 min): 5.94 %ID/g
- Biological distribution, Small intestines ([1]; 15 min): 6.37 %ID/organ
- Biological distribution, Spleen ([1]; 15 min): 6.35 %ID/g
- Biological distribution, Stomach ([1]; 15 min): 2.34 %ID/organ
- Biological distribution, Thyroid ([1]; 15 min): 0.05 %ID/organ
- Biological distribution, Urine ([1]; 15 min): 5.25 %ID/organ
- Biological distribution, Blood ([1]; 30 min): 1.44 %ID/g
- Biological distribution, Brain ([1]; 30 min): 0.74 %ID/g
- Biological distribution, Gallbladder ([1]; 30 min): 9.16 %ID/g
- Biological distribution, Heart ([1]; 30 min): 2.34 %ID/g
- Biological distribution, Kidney ([1]; 30 min): 15.65 %ID/g
- Biological distribution, Large intestines ([1]; 30 min): 1.00 %ID/organ
- Biological distribution, Liver ([1]; 30 min): 5.03 %ID/g
- Biological distribution, Lung ([1]; 30 min): 11.31 %ID/g
- Biological distribution, Pancreas ([1]; 30 min): 23.69 %ID/g
- Biological distribution, Small intestines ([1]; 30 min): 7.71 %ID/organ
- Biological distribution, Spleen ([1]; 30 min): 4.03 %ID/g
- Biological distribution, Stomach ([1]; 30 min): 2.24 %ID/organ
- Biological distribution, Thyroid ([1]; 30 min): 0.09 %ID/organ
- Biological distribution, Urine ([1]; 30 min): 5.63 %ID/organ
- Biological distribution, Blood ([1]; 60 min): 0.65 %ID/g
- Biological distribution, Brain ([1]; 60 min): 0.52 %ID/g
- Biological distribution, Gallbladder ([1]; 60 min): 20.14 %ID/g
- Biological distribution, Heart ([1]; 60 min): 0.96 %ID/g
- Biological distribution, Kidney ([1]; 60 min): 9.60 %ID/g
- Biological distribution, Large intestines ([1]; 60 min): 0.68 %ID/organ
- Biological distribution, Liver ([1]; 60 min): 2.12 %ID/g
- Biological distribution, Lung ([1]; 60 min): 5.81 %ID/g
- Biological distribution, Pancreas ([1]; 60 min): 2.77 %ID/g
- Biological distribution, Small intestines ([1]; 60 min): 10.07 %ID/organ
- Biological distribution, Spleen ([1]; 60 min): 1.94 %ID/g
- Biological distribution, Stomach ([1]; 60 min): 1.90 %ID/organ
- Biological distribution, Thyroid ([1]; 60 min): 0.11 %ID/organ
- Biological distribution, Urine ([1]; 60 min): 2.01 %ID/organ
- metabolites of 125I-ODV present in bile ([2]; gallbladders collected 60 min after injection): more than 99%
- fraction of 125I-ODV in bile [2, 3]: not found
- fractional ratio of the metabolite in bile [2, 3]: more than 99%
